PubChem BioAssay AID1259407 (Chemical Carcinogenesis Research Information System (CCRIS), 2018)
Activity calls are given as the source filed them. The rule behind the calls is not given here.

Test system: CCRIS mutagenicity, Ames/micronucleus/aberration tests
Assay: CCRIS mutagenicity studies

`Nc1ccc2cc3ccccc3cc2c1` was tested, and the mutagenic call (Test System: AMES SALMONELLA TYPHIMURIUM, Strain/Indicator: TA100, Metabolic Activation: RAT, LIVER, S-9, AROCLOR 1254 OR PHENOBARBITOL, Method: STANDARD PLATE) was “active; positive”, the mutagenic call (Test System: AMES SALMONELLA TYPHIMURIUM, Strain/Indicator: TA100, Metabolic Activation: RAT, LIVER, S-9, PHENOBARBITAL, Method: STANDARD PLATE) was “active; positive” and the mutagenic call (Test System: AMES SALMONELLA TYPHIMURIUM, Strain/Indicator: TA1535 (PSK1002), Metabolic Activation: RAT, LIVER, S-9, AROCLOR 1254, Method: PREINCUBATION) was “active; positive”. The mutagenic call (Test System: AMES SALMONELLA TYPHIMURIUM, Strain/Indicator: TA1535, Metabolic Activation: NONE, Method: SPIRAL ASSAY) was “inactive; negative”, the mutagenic call (Test System: AMES SALMONELLA TYPHIMURIUM, Strain/Indicator: TA1535, Metabolic Activation: RAT, LIVER, S-9, AROCLOR 1254 (2%), Method: STANDARD PLATE) was “inactive; negative” and the mutagenic call (Test System: AMES SALMONELLA TYPHIMURIUM, Strain/Indicator: TA1535, Metabolic Activation: RAT, LIVER, S-9, AROCLOR 1254, Method: SPIRAL ASSAY) was “active; positive”. The mutagenic call (Test System: AMES SALMONELLA TYPHIMURIUM, Strain/Indicator: TA1535, Metabolic Activation: RAT, LIVER, S-9, AROCLOR 1254, Method: STANDARD PLATE) was “active; positive”, the mutagenic call (Test System: AMES SALMONELLA TYPHIMURIUM, Strain/Indicator: TA1535, Metabolic Activation: RAT, LIVER, S-9, AROCLOR 1254 OR PHENOBARBITOL, Method: STANDARD PLATE) was “active; positive” and the mutagenic call (Test System: AMES SALMONELLA TYPHIMURIUM, Strain/Indicator: TA1535, Metabolic Activation: RAT, LIVER, S-9, PHENOBARBITAL, Method: STANDARD PLATE) was “active; positive”. For the same molecule, the mutagenic call (Test System: AMES SALMONELLA TYPHIMURIUM, Strain/Indicator: TA1537, Metabolic Activation: NONE, Method: SPIRAL ASSAY) was “inactive; negative”, the mutagenic call (Test System: AMES SALMONELLA TYPHIMURIUM, Strain/Indicator: TA1537, Metabolic Activation: NONE, Method: STANDARD PLATE) was “inactive; negative” and the mutagenic call (Test System: AMES SALMONELLA TYPHIMURIUM, Strain/Indicator: TA1537, Metabolic Activation: RAT, LIVER, S-9, AROCLOR 1254 (2%), Method: STANDARD PLATE) was “active; positive”. For the same molecule, the mutagenic call (Test System: AMES SALMONELLA TYPHIMURIUM, Strain/Indicator: TA1537, Metabolic Activation: RAT, LIVER, S-9, AROCLOR 1254, Method: SPIRAL ASSAY) was “active; positive”, the mutagenic call (Test System: AMES SALMONELLA TYPHIMURIUM, Strain/Indicator: TA1537, Metabolic Activation: RAT, LIVER, S-9, AROCLOR 1254, Method: STANDARD PLATE) was “active; positive” and the mutagenic call (Test System: AMES SALMONELLA TYPHIMURIUM, Strain/Indicator: TA1537, Metabolic Activation: RAT, LIVER, S-9, AROCLOR 1254 OR PHENOBARBITOL, Method: STANDARD PLATE) was “active; positive”. For the same molecule, the mutagenic call (Test System: AMES SALMONELLA TYPHIMURIUM, Strain/Indicator: TA1538, Metabolic Activation: NONE, Method: STANDARD PLATE) was “inactive; negative”, the mutagenic call (Test System: AMES SALMONELLA TYPHIMURIUM, Strain/Indicator: TA1538, Metabolic Activation: RAT, LIVER, S-9, AROCLOR 1254, Method: STANDARD PLATE) was “active; positive” and the mutagenic call (Test System: AMES SALMONELLA TYPHIMURIUM, Strain/Indicator: TA1538, Metabolic Activation: RAT, LIVER, S-9, AROCLOR 1254 OR PHENOBARBITOL, Method: STANDARD PLATE) was “active; positive”. For the same molecule, the mutagenic call (Test System: AMES SALMONELLA TYPHIMURIUM, Strain/Indicator: TA1538, Metabolic Activation: RAT, LIVER, S-9, PHENOBARBITAL, Method: STANDARD PLATE) was “active; positive”, the mutagenic call (Test System: AMES SALMONELLA TYPHIMURIUM, Strain/Indicator: YG1012, Metabolic Activation: RAT, LIVER, S-9, PHENOBARBITAL AND 5,6-BENZOFLAVONE, Method: PREINCUBATION) was “active; positive” and the mutagenic call (Test System: AMES SALMONELLA TYPHIMURIUM, Strain/Indicator: YG1019, Metabolic Activation: RAT, LIVER, S-9, PHENOBARBITAL AND 5,6-BENZOFLAVONE, Method: PREINCUBATION) was “active; positive”. The mutagenic call (Test System: AMES SALMONELLA TYPHIMURIUM, Strain/Indicator: YG1020, Metabolic Activation: RAT, LIVER, S-9, PHENOBARBITAL AND 5,6-BENZOFLAVONE, Method: PREINCUBATION) was “active; positive”, the mutagenic call (Test System: AMES SALMONELLA TYPHIMURIUM, Strain/Indicator: YG1024, Metabolic Activation: RAT, LIVER, S-9, PHENOBARBITAL AND 5,6-BENZOFLAVONE, Method: PREINCUBATION) was “active; positive” and the mutagenic call (Test System: AMES SALMONELLA TYPHIMURIUM, Strain/Indicator: YG1025, Metabolic Activation: RAT, LIVER, S-9, PHENOBARBITAL AND 5,6-BENZOFLAVONE, Method: PREINCUBATION) was “active; positive”. The mutagenic call (Test System: AMES SALMONELLA TYPHIMURIUM, Strain/Indicator: YG1029, Metabolic Activation: RAT, LIVER, S-9, PHENOBARBITAL AND 5,6-BENZOFLAVONE, Method: PREINCUBATION) was “active; positive”, the mutagenic call (Test System: Ames Salmonella typhimurium, Strain/Indicator: YG7108pin3ERb5, Metabolic Activation: None, Method: Standard plate) was “active; positive” and the mutagenic call (Test System: CHINESE HAMSTER OVARY, Strain/Indicator: CHO-K1-BH4 (HGPRT), Metabolic Activation: RAT, LIVER, S-9, AROCLOR, Method: SUSPENSION/PLATE) was “active; positive”. The mutagenic call (Test System: E. COLI, Strain/Indicator: WP2 UVRA, Metabolic Activation: NONE, Method: STANDARD PLATE) was “inactive; negative”, the mutagenic call (Test System: MOUSE LYMPHOMA, Strain/Indicator: L5178Y (TK+/TK-), Metabolic Activation: NONE, Method: SUSPENSION/PLATE) was “inactive; negative” and the mutagenic call (Test System: MOUSE LYMPHOMA, Strain/Indicator: L5178Y (TK+/TK-), Metabolic Activation: RAT, LIVER, S-9, AROCLOR 1254, Method: SUSPENSION/PLATE) was “active; positive”.
